Test results: US9144598B2, “Reverse thermal gels and their use in cell therapy” (University of Pittsburgh—Of the Commonwealth System of …, priority 2010, dated 2015)
No end group written: not given here.

Experiments:
SH-SY5Y = experiment: 2D neuronal cell culture: cell attachment and neurite outgrowth; format: cell-based; conditions: for neurite outgrowth without RA / neurite outgrowth with RA: 14-day culture; for neurite outgrowth with RA: 10 μM retinoic acid from day 7; for cell attachment on surface: 15% (wt) gel or laminin coated plate
Method: Cells, SH-SY5Y (ATCC, CRL-2266), were cultured in DMEM/F12 (1:1) medium with 10% fetal bovine serum (FBS), and 1% antibiotics. The cells were incubated in a humidified atmosphere with 5% CO2 at 37° C. The medium was refreshed every three days until the cells reached 95% confluence. The cells were harvested from the petri dish by incubation in 1 ml of trypsin solution (0.25%) for 5 min, neutralizing with 5 ml of serum-supplemented medium, centrifugation and removal of supernatant. The cell pellets were resuspended in serum-supplemented medium and 5×10^3 cells was used immediately for 2D neuronal cell culture.
Fifty μl of each solution (15%, wt) of pure reverse thermal gel and IKVAVS-GEL was transferred into 96-well plate on 37° C. heating plate. After 5 min, cell suspension (5×10^3 cells) in 150 μl of medium was added on top of the gel. For a control, the same number of cell suspension in 200 μl of medium was transferred into laminin coated 96-well plate. A 100 μl of medium was refreshed every two days. The cell growth was examined on a microscope. After 7-day culture, 10 μM of retinoic acid (RA) was added and neurite outgrowth was monitored on a microscope.

[1] = buffer
Method: The storage modus (G′) of the polymer solutions in phosphate buffered saline (PBS) solution was measured by rheometer from 20° C. to 55° C.

Sprague Dawley rats = conditions: rat, in vivo, sc
Method: In vivo biocompatibility was evaluated in Sprague Dawley rats.

Substance: IKVAVS-GEL: IKVAVS (SEQ ID NO: 21) conjugated reverse thermal gel (also: conjugated to reverse thermal gel; listed as Homo sapiens)
- neurite outgrowth without RA (SH-SY5Y): much better than that on pure reverse thermal gel
- neurite outgrowth with RA (SH-SY5Y): much better than that on pure reverse thermal gel
- cell attachment on surface (SH-SY5Y): attached well

Substance: laminin [reference compound]
- neurite outgrowth without RA (SH-SY5Y): some short neurite outgrowth
- neurite outgrowth with RA (SH-SY5Y): much dense and longer neurite outgrowth
- cell attachment on surface (SH-SY5Y): attached very well

Substance: poly(ethylene glycol)-poly(serinol hexamethylene urethane) [ESHU]
- temperature range in which it remained gel [1]: 37-40 °C
- inflammatory response (Sprague Dawley rats): well tolerated inflammatory response
